Source: the supplement of paper PMC10883282

Key:
Assay in all cases: standardised AUC of viability dose-response curve (72 h) (fraction (0-1)); higher = less growth inhibition (more resistant)
A204 = tested on: A204
Summary of the method: (§1)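 Viability of sarcoma cell lines was read with ATPLite after 72 h of triplicate treatment in 384-well plates with 2.5 µl of compound from a compound-plate series of 10 mM to 0.0002 mM. Viability was scaled 1 (full) to 0 (none) and fitted with a four-parameter log-logistic model for each drug and cell line. The reported standardised area under the dose-response curve in log-dose space comes from a modified drexplorer computeAUC, where 1 is no response and 0 is full response.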

G401 = tested on: G401
Summary of the method: as §1

HS729 = tested on: HS729
Summary of the method: as §1

HT1080 = tested on: HT1080
Summary of the method: as §1

KHOS-240S = tested on: KHOS-240S
Summary of the method: as §1

KHOS-NP = tested on: KHOS-NP
Summary of the method: as §1

MES-SA = tested on: MES-SA
Summary of the method: as §1

RD-ES = tested on: RD-ES
Summary of the method: as §1

RD = tested on: RD
Summary of the method: as §1

SK-ES-1 = tested on: SK-ES-1
Summary of the method: as §1

SK-LMS-1 = tested on: SK-LMS-1
Summary of the method: as §1

SW1353 = tested on: SW1353
Summary of the method: as §1

SW684 = tested on: SW684
Summary of the method: as §1

SW872 = tested on: SW872
Summary of the method: as §1

SW982 = tested on: SW982
Summary of the method: as §1

SYO-1 = tested on: SYO-1
Summary of the method: as §1

VA-ES-BJ = tested on: VA-ES-BJ
Summary of the method: as §1

| SMILES | standardised AUC (A204) | standardised AUC (G401) | standardised AUC (HS729) | standardised AUC (HT1080) | standardised AUC (KHOS-240S) | standardised AUC (KHOS-NP) | standardised AUC (MES-SA) | standardised AUC (RD-ES) | standardised AUC (RD) | standardised AUC (SK-ES-1) | standardised AUC (SK-LMS-1) | standardised AUC (SW1353) | standardised AUC (SW684) | standardised AUC (SW872) | standardised AUC (SW982) | standardised AUC (SYO-1) | standardised AUC (VA-ES-BJ) |
| --- | --- | --- | --- | --- | --- | --- | --- | --- | --- | --- | --- | --- | --- | --- | --- | --- | --- |
| CNC(=O)c1ccc(-c2cnc3ncc(Cc4ccc5ncccc5c4)n3n2)cc1F [CAPMATINIB] | 0.971 | 0.973 | 0.989 | 0.976 | 0.986 | 0.998 | 0.982 | 1 | 0.995 | 1 | 0.68 | 1 | 0.958 | 0.989 | 0.985 | 1 | 0.873 |
| COCc1c(-c2cc3cc(C)cc(OC)c3s2)c2c(N)ncnn2c1CN1CCNC(=O)C1 [ROGARATINIB] | 0.755 | 0.807 | 0.776 | 0.999 | 0.854 | 0.987 | 0.85 | 0.934 | 0.958 | 0.907 | 0.952 | 0.851 | 0.974 | 0.943 | 0.93 | 0.751 | 0.962 |
| Cc1nc(-c2cn3c(n2)-c2ccc(-c4cnn(C(C)(C)C(N)=O)c4)cc2OCC3)n(C(C)C)n1 [TASELISIB] | 0.675 | 0.744 | 0.77 | 0.989 | 0.843 | 0.975 | 0.664 | 0.675 | 0.727 | 0.68 | 0.771 | 0.855 | 0.702 | 0.76 | 0.826 | 0.84 | 0.727 |
| COc1cc2c(Oc3ccc4[nH]c(C)cc4c3F)ncnc2cc1OCCCN1CCCC1 [CEDIRANIB] | 0.622 | 0.797 | 0.929 | 0.996 | 0.939 | 0.98 | 0.91 | 0.987 | 0.966 | 0.917 | 0.966 | 0.922 | 0.995 | 0.986 | 0.959 | 0.743 | 1 |
| COc1cc2nccc(Oc3ccc(NC(=O)Nc4cc(C)on4)c(Cl)c3)c2cc1OC [TIVOZANIB] | 0.658 | 0.933 | 0.971 | 0.995 | 0.954 | 0.983 | 0.931 | 0.974 | 0.985 | 0.971 | 0.956 | 0.97 | 0.985 | 0.982 | 0.974 | 0.807 | 0.995 |
| CC(=O)Nc1cccc(-n2c(=O)n(C3CC3)c(=O)c3c(Nc4ccc(I)cc4F)n(C)c(=O)c(C)c32)c1 [TRAMETINIB] | 0.782 | 0.651 | 0.761 | 0.577 | 0.783 | 0.523 | 0.827 | 0.989 | 0.65 | 0.958 | 0.533 | 0.709 | 0.714 | 0.619 | 0.897 | 0.825 | 0.756 |
| Nc1cc(C(F)(F)F)c(-c2cc(N3CCOCC3)nc(N3CCOCC3)n2)cn1 [BUPARLISIB] | 0.754 | 0.823 | 0.815 | 0.862 | 0.829 | 0.887 | 0.753 | 0.769 | 0.785 | 0.742 | 0.75 | 0.85 | 0.823 | 0.809 | 0.79 | 0.791 | 0.762 |
| Cc1ccc(F)c(NC(=O)Nc2ccc(-c3cccc4[nH]nc(N)c34)cc2)c1 [LINIFANIB] | 0.74 | 0.948 | 0.884 | 0.994 | 0.983 | 0.955 | 0.973 | 0.994 | 1 | 0.964 | 1 | 0.993 | 0.996 | 0.972 | 1 | 0.879 | 1 |
| CO[C@H]1C[C@@H]2CC[C@@H](C)[C@@](O)(O2)C(=O)C(=O)N2CCCC[C@H]2C(=O)O[C@H]([C@H](C)C[C@@H]2CC[C@@H](OP(C)(C)=O)[C@H](OC)C2)CC(=O)[C@H](C)/C=C(\C)[C@@H](O)[C@@H](OC)C(=O)[C@H](C)C[C@H](C)/C=C/C=C/C=C/1C [RIDAFOROLIMUS] | 0.643 | 0.832 | 0.937 | 0.925 | 0.867 | 0.97 | 0.542 | 0.764 | 0.748 | 0.682 | 0.645 | 0.796 | 0.798 | 0.686 | 0.729 | 0.874 | 0.587 |
| N#CC[C@H](C1CCCC1)n1cc(-c2ncnc3[nH]ccc23)cn1 [RUXOLITINIB] | 0.951 | 0.97 | 0.951 | 0.994 | 0.944 | 0.977 | 0.944 | 0.989 | 0.992 | 0.981 | 0.987 | 0.982 | 0.948 | 0.945 | 0.936 | 0.978 | 0.973 |
| Cc1cc(Nc2ncnc3ccc(NC4=NC(C)(C)CO4)cc23)ccc1Oc1ccn2ncnc2c1 [TUCATINIB] | 0.966 | 0.979 | 0.928 | 0.988 | 0.983 | 0.989 | 0.946 | 0.978 | 1 | 0.974 | 0.985 | 0.915 | 0.976 | 0.981 | 0.984 | 0.97 | 0.951 |
| O=C(Nc1cnn2ccc(N3CCC[C@@H]3c3cc(F)ccc3F)nc12)N1CC[C@H](O)C1 [LAROTRECTINIB] | 0.992 | 0.98 | 0.886 | 0.996 | 0.988 | 0.969 | 0.982 | 0.994 | 0.995 | 0.982 | 0.961 | 0.936 | 0.985 | 0.953 | 0.996 | 0.92 | 0.969 |
| CNC(=O)c1cc(Oc2ccc(NC(=O)Nc3ccc(Cl)c(C(F)(F)F)c3)c(F)c2)ccn1 [REGORAFENIB] | 0.768 | 0.874 | 0.873 | 0.96 | 0.936 | 0.856 | 0.934 | 0.974 | 0.91 | 0.943 | 0.904 | 0.958 | 0.992 | 0.93 | 0.96 | 0.816 | 0.977 |
| CC1(C)CNc2cc(NC(=O)c3cccnc3NCc3ccncc3)ccc21 [MOTESANIB] | 0.756 | 0.957 | 0.944 | 0.981 | 0.97 | 0.975 | 0.995 | 0.994 | 1 | 0.991 | 0.983 | 0.975 | 0.95 | 0.978 | 0.997 | 0.866 | 1 |
| CC(C)NC(=O)C1CCC(n2c(NC(=O)c3ccc(F)cc3)nc3ccc(CN4CCC(C(C)(C)O)CC4)cc32)CC1 (configuration not stated) [BELIZATINIB] | 0.922 | 0.829 | 0.838 | 0.952 | 0.844 | 0.973 | 0.901 | 0.791 | 0.788 | 0.749 | 0.926 | 0.897 | 0.925 | 0.82 | 0.762 | 0.827 | 0.835 |
| Cc1cnc(Nc2ccc(OCCN3CCCC3)cc2)nc1Nc1cccc(S(=O)(=O)NC(C)(C)C)c1 [FEDRATINIB] | 0.746 | 0.784 | 0.756 | 0.86 | 0.766 | 0.886 | 0.756 | 0.733 | 0.763 | 0.691 | 0.847 | 0.779 | 0.825 | 0.754 | 0.677 | 0.685 | 0.768 |
| CC(C)N1CCN(Cc2cnc(-c3cc(-c4cccc5[nH]ccc45)cc4[nH]ncc34)o2)CC1 [NEMIRALISIB] | 0.908 | 0.947 | 0.906 | 0.996 | 0.944 | 0.998 | 0.95 | 0.95 | 0.924 | 0.935 | 0.944 | 0.917 | 0.726 | 0.919 | 0.916 | 0.916 | 0.952 |
| Cc1nc(NC(=O)N2CCC[C@H]2C(N)=O)sc1-c1ccnc(C(C)(C)C(F)(F)F)c1 [ALPELISIB] | 0.848 | 0.845 | 0.78 | 0.963 | 0.895 | 0.964 | 0.818 | 0.793 | 0.86 | 0.799 | 0.867 | 0.909 | 0.887 | 0.819 | 0.935 | 0.814 | 0.852 |
| COc1c(OCCCN2CCOCC2)ccc2c1N=C(NC(=O)c1cnc(N)nc1)N1CCN=C21 [COPANLISIB] | 0.516 | 0.654 | 0.583 | 0.83 | 0.693 | 0.802 | 0.474 | 0.472 | 0.556 | 0.483 | 0.617 | 0.675 | 0.569 | 0.541 | 0.609 | 0.655 | 0.568 |
| Cc1ccc(NC(=O)c2ccc(CN3CCN(C)CC3)cc2)cc1Nc1nc(-c2cccnc2)cs1 [MASITINIB] | 0.702 | 0.848 | 0.884 | 0.902 | 0.853 | 0.89 | 0.869 | 0.871 | 0.902 | 0.881 | 0.907 | 0.857 | 0.873 | 0.874 | 0.876 | 0.749 | 0.897 |
| CC(C)(C)c1cc(NC(=O)Nc2ccc(-c3cn4c(n3)sc3cc(OCCN5CCOCC5)ccc34)cc2)no1 [QUIZARTINIB] | 0.745 | 0.958 | 0.939 | 0.964 | 0.954 | 0.964 | 0.93 | 0.989 | 0.977 | 0.924 | 0.94 | 0.978 | 0.966 | 0.986 | 0.992 | 0.879 | 0.976 |
